This is an account of results in a melting point compilation (Tetko et al.; mined from patent text by program, amines drawn as free bases though some values may be those of a salt).

A word on the melting point: it is the temperature of the solid-liquid transition. The compound `Cc1ccc(C)c(C(=O)Nc2ccc(C(=O)N3Cc4ccccc4Cc4ccccc43)cc2)c1` returned a melting point of 213 to 216 °C.
The result for `N#Cc1cc2c(cc1F)OCC21C(=O)N(Cc2ccccn2)c2ccccc21` (stereo not given) reads 108 to 109 °C; that for `CC(/C=C/n1ncc(-c2ccc(S(N)(=O)=O)cc2)c(-c2ccc(F)cc2)c1=O)C(F)(F)F` (stereo not given), 155 to 157 °C; that for `CCCCCCCCCCCC(=O)N[C@@H](Cc1ccc(O)cc1)C(=O)OC`, 89 °C.
The value for `CN1C(=O)CN(C(N)=O)C(c2ccccc2)c2cc(Cl)ccc21` (stereo not given) was 214 to 217 °C.
Consider `CCN(CC)C(=O)C1CCC2C3CNC4=CC(=O)C=CC4(C)C3CCC12C` (stereo not given), for which the melting point is over 250 °C.
As to `CCOC(=O)C(C1c2ccccc2C=Cc2ccccc21)[N+](=O)[O-]` (stereo not given), the melting point was in the range of 101 to 103 °C.
In turn, `COC(=O)C1=C(C)NC(C#N)=C(C(=O)OC)C1c1cccc2c(=O)c(C)c(-c3ccccc3)oc12` (stereo not given) displayed a melting point of 250 °C.
In turn, `Cc1noc(NS(=O)(=O)c2ccc(NCC(=O)O)cc2-c2ccc(CC(C)C)cc2)c1C` returned a melting point of 73 to 78 °C.
The value for `CCN(C(=O)c1ccccc1)[C@@H](Cc1c[nH]c2ccccc12)C(=O)OC(=O)c1ccc(N)cc1` was 181 to 183 °C.
The value for `Cc1cc(OCC(=O)OC(C)C)ccc1NC(=O)NC(=O)c1ccc(C#N)cc1` was 233 to 234 °C.
The result for `CC(=O)NC[C@H]1CN(c2ccc(C(=O)c3cnc4ccc([N+](=O)[O-])cn34)cc2)C(=O)O1` reads 223 to 225 °C.
In the case of `Nc1ccc(Oc2ccc(P(=O)(c3ccccc3)c3ccccc3)c(Oc3ccc(N)cc3)c2)cc1`, the melting point was in the range of 272 to 275 °C.
For the compound `CCCNC(=O)c1ccc(-c2ccc3nnn(Cc4ccc5ncccc5c4)c3n2)cc1Cl`, the melting point fell in the range of 128 to 130 °C.
The value for `CCCCCCCCCCCCCCSc1ccc(C(=O)O)s1` was 106 to 108 °C.
The result for `CCOc1nn(C(=O)NS(=O)(=O)c2c(C(=O)N(C)C)csc2C)c(=O)n1C` reads 162 °C; that for `CC(C)C[C@H](NC(=O)CCOc1ccccc1)C(=O)N[C@@H](C(C)C)[C@@H](O)c1c(-c2ccccc2)c1=O`, 92 to 95 °C; that for `CC(=O)SC(CC(=O)N[C@@H](Cc1ccccc1)C(=O)O)C(=O)c1ccccc1` (stereo not given in full), 110 to 112 °C.
The value for `C=C1C(=O)NC(=O)N1c1cccc(Cl)c1Cl` was 201 to 203 °C.
Regarding `COc1cc(OC)nc(Sc2cccc(Cl)c2C(=O)O)n1`, the melting point was in the range of 148 to 151 °C.
The result for `COc1cc(OCC2CCCO2)ccc1/C=C/c1cc(/C=C/c2ccc3cc[nH]c3c2)n[nH]1` (stereo not given) reads 218 to 220 °C; that for `COc1cc(Cn2[nH]c(N)cc2=O)ccc1Cl`, 148 °C; that for `Cc1cc(OCc2coc(/C=C/c3ccc(S(=O)C(F)(F)F)cc3)n2)ccc1CCCCc1c[nH]nn1` (stereo not given), 113 to 114 °C.
In the case of `O=C(c1ccc([N+](=O)[O-])cc1Cl)N1CCCCc2ccccc21`, the melting point lay in the range of 112 to 114 °C.
The result for `O=c1cc(-c2ccc(Br)cc2)oc2ccccc12` reads 177 to 179 °C; that for `Cc1ccc(S(=O)(=O)NC(=O)N2C(=O)CN2C(c2ccccc2)c2ccccc2)cc1`, 115 to 123 °C; that for `O=C(O)Cc1cccc(OCc2ccccc2Cl)c1OCc1ccccc1Cl`, 102 to 104 °C.
The result for `CC1CC(=O)NN=C1c1ccc(N2CCN(c3ncccn3)CC2)c(N)c1` (stereo not given) reads 220 to 221 °C; that for `C=CCN1C(C)(C)CC(O)CC1(C)C`, 84 to 85 °C.
The result for `CCCC(c1ccc(C(=O)O)cc1)N(CCC)c1nc(-c2ccc(Cl)cc2Cl)c(C)s1` (stereo not given) reads 86 °C; that for `Cc1ccc(-c2nc(O)cc(O)n2)cc1`, 314 °C; that for `COc1cc2c(cc1OC)-c1c(C#N)sc(=S)n1CC2`, 228 °C.
`Cc1cc(NC(=O)NN(c2ccccc2)c2cccc(CN)c2)ccc1N1CCCCC1=O` gave a melting point of 172 to 173 °C.
`CNc1cccc(OC)c1[N+](=O)[O-]` displayed a melting point of 58 to 59 °C.
The result for `COc1ccc(-n2nc(C(F)(F)F)nc2-c2ccc(S(N)(=O)=O)cc2)cc1` reads 228 °C; that for `C[C@H]([C@](O)(Cn1cncn1)c1ccc(F)cc1F)S(=O)(=O)N1CCN(c2ncccn2)CC1`, 101 to 108 °C; that for `O=c1cc(C(F)(F)F)cnn1-c1c(F)cc(Cl)c(O)c1[N+](=O)[O-]`, 146 to 148 °C.
The value for `O=C1Nc2cccnc2N(C(=O)N2CCCC(CCN3CCCC3)C2)c2cc(Cl)ccc21` (stereo not given) was 136 to 139 °C.
The compound `COc1cccc(C2=C(CC(C)=O)C(=O)NCCC2)c1` yielded a melting point of 140 to 142 °C.
The value for `COC(=O)c1sc(C(=O)OC)c(OC)c1C` was 61 to 64 °C.
The result for `CCOC(=O)C=C(C)C=CC=C(C)C=Cc1c(Cl)cc(OC)cc1Cl` reads 117 to 118 °C; that for `NS(=O)(=O)c1cc(C(=O)O)c(NCc2ccccc2)cc1Oc1ccccc1`, 237 to 239 °C.
The result for `O=C(O)Cc1cccc(NC(=O)NCC(=O)N2[C@@H](c3ccccc3O)CC[C@H]2c2ccccc2)c1` (racemic) reads 165 °C; that for `Cn1cc(/C=C/C#N)c2ccccc21`, 91 to 94 °C; that for `CCCCOc1ccc(S(=O)(=O)C2(C(=O)NO)CCN(CC)CC2)cc1`, 98 °C.
On to `CCCCOc1ccc(S(=O)(=O)N2CCC(OS(C)(=O)=O)C2)cc1` (stereo not given), for which the melting point fell in the range of 80 to 81 °C.
The value for `Cn1c(-c2ccccc2Cl)c2ccsc2nc1=O` was 190 to 192 °C; that for `CCCCCCCCCCCCCCCCCCNC(=O)OCC(CN(C(C)=O)S(=O)(=O)CCCI)NC(C)=O` (stereo not given) was 118 to 119 °C; that for `CC(=NO)c1nn(C)c2cc(OCC3CC3(Cl)Cl)c(F)cc12` (stereo not given) was 150 to 152 °C.
As to `O=C1C(O)=C(C2CCC(c3ccc(Cl)cc3)CC2)C(=O)c2ccccc21` (stereo not given), the melting point fell in the range of 216 to 219 °C.
The value for `CC(=O)NC[C@H]1CN(c2ccc(N3CCC(Cc4noc(-c5ccccc5)n4)CC3)c(F)c2)C(=O)O1` was 144 to 146 °C.
As for `CCOc1ccc(C(=O)c2csc(-c3ccc(OCC)c(OCC)c3)n2)cc1OCC`, the melting point was 128 to 129 °C.
The value for `CCCc1c(OCCCSc2nnc(SCC(=O)OCC)s2)ccc(C(C)=O)c1O` was 71 to 72.5 °C; that for `O=C(CCCCCNC(=O)OCc1ccccc1)N[C@@H](Cc1ccccc1)C(=O)O` was 119 to 120 °C; that for `COc1ccc2c3c1OC1C(O)C(C)(C)C(C)C4C(C2)N(C)CCC314` (stereo not given) was 110 to 112 °C.
The value for `CCC(O)(c1ccccc1)c1ccc(C(=O)O)cc1` (stereo not given) was 128 to 130 °C; that for `CCCCOCCOc1ccc(-c2ccc(N3CCCC3)c(C(C)=CC(=O)O)c2)cc1` was 128 °C.
`NC(=O)c1cccc(Cn2ccc(OCc3ccc(F)cc3F)c(Cl)c2=O)c1F`: the melting point is 252 to 254 °C.
The value for `Cc1ccc2c(c1)c1c(n2Cc2ccccc2)CCCC1=O` was 179 to 180 °C; that for `O=C(NCc1ccccc1)c1ccc(OC2CCCC2)c2oc3ccccc3c12` was 172 to 175 °C.
The result for `COc1ccc(CCCc2ccc(O)cc2O)c(OC)c1C` reads 108 °C; that for `CC1(C2CCC3C4CCC5CC(CC(=O)O)CCC5(C)C4CCC32C)OCCO1` (stereo not given), 164 to 167 °C.
The result for `Cc1oc(-c2ccco2)nc1COc1ccc(COc2nn(Cc3ccc(OCc4nc(-c5ccco5)oc4C)cc3)cc2C(=O)O)cc1` reads 144 to 145 °C.
`O=C1NS(=O)Oc2ccccc21` (stereo not given) displayed a melting point of 180 to 182 °C.
The value for `O=C(CSc1nc2ccccc2s1)c1ccc2[nH]c3ncc(Cl)cc3c2c1` was 241 to 242 °C.
The result for `CCCCCCCCCCCCCCCCCC(=O)NC(C)C(=O)NC(CCC(=O)NC(C=CCCC(=O)O)C(=O)O)C(=O)O` (stereo not given) reads 200 °C.
The value for `CS(=O)(=O)c1ccc(Oc2cc(OCc3ccccc3)c3[nH]c(C#N)cc3c2)cc1` was 209 to 210 °C.
As to `COc1cc2c(c(C(=O)O)c1OC)CCN(Cc1ccccc1)CC2c1ccccc1` (stereo not given), the melting point lay within 145 to 153 °C.
The result for `CCCCCCC(C(=O)OCC)S(=O)(=O)c1ccc(C)cc1` (stereo not given) reads 111 to 123 °C; that for `CS(=O)(=O)c1ccc(CN(C2CCOCC2)S(=O)(=O)c2ccc(Cl)cc2)cc1`, 158 to 160 °C; that for `CC(C)(CO)[C@@H](O)C#N`, 110 °C.
The result for `NC(=O)C(CCCCCCCCCCCCC(C(N)=O)C1CC1)C1CC1` (stereo not given) reads 157 to 158 °C; that for `COC(=O)CCCc1cc2nc(Cl)ccc2n1S(=O)(=O)c1ccc(-c2nccs2)cc1`, 101 °C; that for `Cc1ccc2c(c1)N=C(N1CCN(C)CC1)c1c(sc3ccccc13)N2`, 184 to 186 °C.
Take `CCOC(=O)CCC1CCC2C(C=CC3=CCCc4c3n2c2ccncc42)C1` (stereo not given): the melting point turned out to be 112 °C.
The value for `O=C(CCC(F)(F)F)N[C@H]1CC[C@H](CCN2CCC(c3cccc4c3CCO4)CC2)CC1` was 200 °C.
The result for `COc1c(N2CCC(n3nncc3C)C2)c(F)cc2c(=O)c(C(=O)O)cn(C3CC3)c12` (stereo not given) reads 226 to 228 °C.
The value for `CCCCCCOc1cc(-n2c(=O)cc(C(F)(F)F)n(C)c2=O)c(F)cc1Cl` was 60 to 63 °C; that for `COc1ccc(C(=O)c2sc(Nc3ccc(OCc4ccccc4)cc3)nc2N)cc1` was 222 to 224 °C; that for `COc1ccnnc1NS(=O)(=O)c1cccc(Cl)c1Cl` was 210 to 211 °C.
Compound `CCN(CC)CCn1cc2c(c1)-c1ccc(Cl)cc1C(c1ccccc1Cl)=NC2` displayed a melting point of 130 to 131 °C.
The value for `COc1ccc(-c2nc3n(c2-c2ccncc2)CCC3)cc1` was 158 °C; that for `COc1ccc(-c2sc3cc(OC)ccc3c2Br)cc1` was 83 °C.
The result for `CCCCc1noc(-c2ncn3c2[C@@H]2CCCN2C(=O)c2c(Cl)cccc2-3)n1` reads 181 to 182 °C; that for `O=C1C(=O)c2ccc(-c3ccccc3)cc2C2=C1SCC1(CCNCC1)O2`, 83 to 87 °C.
